Results published in patent US11279687B2, “Compounds and compositions for the inhibition of NAMPT” (Valo Health, Inc., priority 2010, dated 2022).
Read-outs that look alike come from different tables or passages of the source.

How the values were obtained:
NAMPT = NAMPT (Homo sapiens (Human), UniProt P43490); experiment: NAMPT biochemical inhibition assay (NMN quantified by mass spectrometry); conditions: NAMPT biochemical inhibition; read-out: Biochem IC50
A2780 cells = experiment: In-vitro cell proliferation assay (SRB), A2780 cells; type: cell-based; conditions: A2780 cells, 72 hours, SRB, read-out: A2780 IC50;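 note: viable cell number read as SRB absorbance, background from media-only wells subtracted, IC50 interpolated from percent inhibition at two bracketing compound concentrations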

Chain of NAMPT (P43490 whole entry): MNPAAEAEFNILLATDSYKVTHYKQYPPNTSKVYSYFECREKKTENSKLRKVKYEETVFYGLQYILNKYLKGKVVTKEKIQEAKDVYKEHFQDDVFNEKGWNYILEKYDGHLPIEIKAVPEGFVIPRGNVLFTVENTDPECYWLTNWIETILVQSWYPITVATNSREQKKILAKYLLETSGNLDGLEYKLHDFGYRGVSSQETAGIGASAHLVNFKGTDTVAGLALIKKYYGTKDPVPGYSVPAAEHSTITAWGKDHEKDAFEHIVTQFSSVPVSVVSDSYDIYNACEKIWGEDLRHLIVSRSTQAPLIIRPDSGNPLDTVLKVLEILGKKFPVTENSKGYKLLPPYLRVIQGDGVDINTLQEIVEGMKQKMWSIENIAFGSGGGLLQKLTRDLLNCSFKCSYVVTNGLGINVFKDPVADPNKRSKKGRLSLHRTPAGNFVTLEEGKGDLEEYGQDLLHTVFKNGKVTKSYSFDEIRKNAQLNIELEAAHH

Row | IC50 (NAMPT) | IC50 (A2780 cells; Homo sapiens, A2780, 72 h) | Structure (SMILES) | IC50 (A2780 cells)
1 | 2 nM | 517 nM | Cc1ccc(S(=O)(=O)c2ccc(NC(=O)NCc3cccnc3)cc2)c(F)c1 [3-{4-[(2-fluoro-4-methylbenzene)sulfonyl]phenyl}-1-(pyridin-3-ylmethyl)urea] | 
2 | 1 nM | 24 nM | O=C(NCc1cccnc1)Nc1ccc(S(=O)(=O)Nc2ccc(N3CCOCC3)c(Cl)c2)cc1 [3-(4-{[3-chloro-4-(morpholin-4-yl)phenyl]sulfamoyl}phenyl)-1-(pyridin-3-ylmethyl)urea] | 
3 | 1 nM | 204 nM | O=C(NCc1cccnc1)Nc1ccc(S(=O)(=O)NC2CCCCC2)cc1 [1-[4-(cyclohexylsulfamoyl)phenyl]-3-(pyridin-3-ylmethyl)urea] | 
4 | 6.3 nM | 13.1 nM | CCCn1cc(S(=O)(=O)c2ccc(NC(=O)NCc3cccnc3)cc2)cn1 [3-[4-(1-propyl-1H-pyrazole-4-sulfonyl)phenyl]-1-(pyridin-3-ylmethyl)urea] | 
5 | 2 nM |  | CC(C)Oc1ccccc1NS(=O)(=O)c1ccc(NC(=O)NCc2cccnc2)cc1 [3-(4-{[2-(propan-2-yloxy)phenyl]sulfamoyl}phenyl)-1-(pyridin] [3-(4-{[2-(propan-2-yloxy)phenyl]sulfamoyl}phenyl)-1-(pyridin-3-ylmethyl)urea] | 15 nM
6 | 2260 nM | > 30000 nM | O=C(NCc1ccc(S(=O)(=O)c2ccccc2)cc1)Nc1ccc2ncccc2c1 [1-{[4-(benzenesulfonyl)phenyl]methyl}-3-(quinolin-6-yl)urea] | 
7 | 4 nM | 135 nM | O=C(NCc1cccnc1)Nc1ccc(S(=O)(=O)N2CCN(CC(=O)N3CCOCC3)CC2)cc1 [1-(4-{4-[2-(morpholin-4-yl)-2-oxoethyl]piperazine-1-sulfonyl}phenyl)-3-(pyridin-3-ylmethyl)urea] | 
8 | 2 nM | 100 to 1000 nM | CC(=O)c1ccc(S(=O)(=O)c2ccc(NC(=O)NCc3cccnc3)cc2)cc1 [3-{4-[(4-acetylbenzene)sulfonyl]phenyl}-1-(pyridin-3-ylmethyl)urea] | 
9 | 1.3 nM | 1.7 nM | COc1ccc(C(C)=O)cc1S(=O)(=O)c1ccc(NC(=O)NCc2cccnc2)cc1 [3-{4-[(5-acetyl-2-methoxybenzene)sulfonyl]phenyl}-1-(pyridin-3-ylmethyl)urea] | 
10 | 5.2 nM | 956 nM | O=C(NCc1cccnc1)Nc1ccc(S(=O)(=O)N2CCC(O)(c3cccc(Cl)c3)CC2)cc1 [3-{4-[4-(3-chlorophenyl)-4-hydroxypiperidine-1-sulfonyl]phenyl}-1-(pyridin-3-ylmethyl)urea] | 
11 | 1.4 nM | 26 nM | Cc1ccc(NS(=O)(=O)c2ccc(NC(=O)NCc3cccnc3)cc2)cc1Cl [3-{4-[(3-chloro-4-methylphenyl)sulfamoyl]phenyl}-1-(pyridin-3-ylmethyl)urea] | 
12 | 2 nM | 50 nM | COc1ccc(Cl)cc1N1CCN(S(=O)(=O)c2ccc(NC(=O)NCc3cccnc3)cc2)CC1 [3-{4-[4-(5-chloro-2-methoxyphenyl)piperazine-1-sulfonyl]phenyl}-1-(pyridin-3-ylmethyl)urea] | 
13 | 2 nM | 108 nM | Cc1cc(NS(=O)(=O)c2ccc(NC(=O)NCc3cccnc3)cc2)ccc1C(C)C [3-(4-{[3-methyl-4-(propan-2-yl)phenyl]sulfamoyl}phenyl)-1-(pyridin-3-ylmethyl)urea] | 
14 | 4 nM | 489 nM | Cc1ccc(F)cc1S(=O)(=O)c1ccc(NC(=O)NCc2cccnc2)cc1 [3-{4-[(5-fluoro-2-methylbenzene)sulfonyl]phenyl}-1-(pyridin-3-ylmethyl)urea] | 
15 | 11400 nM | 9.71 nM | O=C(NCc1ccc2ncsc2c1)c1ccc(S(=O)(=O)c2cccc(Cl)c2)cc1 [N-(1,3-benzothiazol-6-ylmethyl)-4-[(3-chlorobenzene)sulfonyl]benzamide] | 
16 | 11 nM | 164 nM | CC1CCCC(C)N1S(=O)(=O)c1ccc(NC(=O)NCc2cccnc2)cc1 (centres unmarked) [1-[4-(2,6-dimethylpiperidine-1-sulfonyl)phenyl]-3-(pyridin-3-ylmethyl)urea] | 
17 | 5 nM | 173 nM | O=C(NCc1cccnc1)Nc1ccc(S(=O)(=O)Nc2ccc(N3CCOCC3)cc2)cc1 [1-(4-{[4-(morpholin-4-yl)phenyl]sulfamoyl}phenyl)-3-(pyridin-3-ylmethyl)urea] | 
18 | 11 nM | 145 nM | O=C(NCc1cccnc1)Nc1ccc(S(=O)(=O)N2CCC3(CCCCC3)CC2)cc1 [1-(4-{3-azaspiro[5.5]undecane-3-sulfonyl}phenyl)-3-(pyridin-3-ylmethyl)urea] | 
19 | 4 nM | 7 nM | COc1ccc(C)cc1S(=O)(=O)c1ccc(NC(=O)NCc2cccnc2)cc1 [3-{4-[(2-methoxy-5-methylbenzene)sulfonyl]phenyl}-1-(pyridin-3-ylmethyl)urea] | 
20 | 3 nM | 189 nM | O=C(NCc1cccnc1)Nc1ccc(S(=O)(=O)Nc2ccc(Cl)cc2Cl)cc1 [3-{4-[(2,4-dichlorophenyl)sulfamoyl]phenyl]-1-(pyridin-3-ylmethyl)urea] | 

Row | IC50 (NAMPT) | IC50 (A2780 cells; Homo sapiens, A2780, 72 h) | Structure (SMILES) | IC50 (A2780 cells)
21 | 8 nM | 41 nM | O=C(NCc1cccnc1)Nc1ccc([S+]([O-])c2ccc(Cl)cc2)cc1 (centres unmarked) [3-{4-[(4-chlorobenzene)sulfmyl]phenyl}-1-(pyridin-3-ylmethyl)urea] | 
22 | 1.6 nM | 100 to 1000 nM | COc1ccc2cc(S(=O)(=O)c3ccc(NC(=O)NCc4cccnc4)cc3)ccc2c1 [3-[4-(6-methoxynaphthalene-2-sulfonyl)phenyl]-1-(pyridin-3-ylmethyl)urea] | 
23 | 1 nM | 14 nM | O=C(NCc1cccnc1)Nc1ccc(S(=O)(=O)c2ccc(-n3cccn3)cc2F)cc1 [3-(4-{[2-fluoro-4-(1H-pyrazol-1-yl)benzene]sulfonyl}phenyl)-1-(pyridin-3-ylmethyl)urea] | 
24 | 16 nM | 55 nM | CN(C)C(=O)c1ccccc1NS(=O)(=O)c1ccc(NC(=O)NCc2cccnc2)cc1 [N,N-dimethyl-2-[(4-{[(pyridin-3-ylmethyl)carbamoyl]amino}benzene)sulfonamido]benzamide] | 
25 | 10 nM | 459 nM | O=C(NCc1cccnc1)Nc1ccc(S(=O)(=O)N2CCOc3ccccc32)cc1 [1-[4-(3,4-dihydro-2H-1,4-benzoxazine-4-sulfonyl)phenyl]-3-(pyridin-3-ylmethyl)urea] | 
26 | 3.3 nM | 100 to 1000 nM | CC(C)COc1cccc(S(=O)(=O)c2ccc(NC(=O)NCc3cccnc3)cc2)c1 [3-(4-{[3-(2-methylpropoxy)benzene]sulfonyl]phenyl)-1-(pyridin-3-ylmethyl)urea] | 
27 | 7.2 nM | 100 to 1000 nM | Cc1ncccc1S(=O)(=O)c1ccc(NC(=O)NCc2cccnc2)cc1 [3-[4-(2-methylpyridine-3-sulfonyl)phenyl]-1-(pyridin-3-ylmethyl)urea] | 
28 | 3 nM | 47 nM | O=C(NCc1cccnc1)Nc1ccc(S(=O)(=O)Nc2ccccc2-c2ccccc2)cc1 [1-{4-[(2-phenylphenyl)sulfamoyl]phenyl}-3-(pyridin-3-ylmethyl)urea] | 
29 | 7 nM | 26 nM | COc1cccc(OC)c1S(=O)(=O)c1ccc(NC(=O)NCc2cccnc2)cc1 [3-{4-[(2,6-dimethoxybenzene)sulfonyl]phenyl}-1-(pyridin-3-ylmethyl)urea] | 
30 | 3.5 nM | 1.7 nM | CCN(CC)C(=O)c1cc(Cl)cc(S(=O)(=O)c2ccc(NC(=O)NCc3cccnc3)cc2)c1 [3-chloro-N,N-diethyl-5-[(4-{[(pyridin-3-ylmethyl)carbamoyl]amino}benzene)sulfonyl]benzamide] | 
31 | 5 nM | 134 nM | CCc1ccc(CN(C)S(=O)(=O)c2ccc(NC(=O)NCc3cccnc3)cc2)nc1 [3-(4-{[(5-ethylpyridin-2-yl)methyl](methyl)sulfamoyl}phenyl)-1-(pyridin-3-ylmethyl)urea] | 
32 | 5 nM | 475 nM | O=C(NCc1cccnc1)Nc1ccc(S(=O)(=O)c2ccccc2Cl)cc1 [3-{4-[(2-chlorobenzene)sulfonyl]phenyl}-1-(pyridin-3-ylmethyl)urea] | 
33 | 3 nM | 110 nM | CS(=O)(=O)N(c1cccc(N)c1)S(=O)(=O)c1ccc(NC(=O)NCc2cccnc2)cc1 [3-{4-[(3-aminophenyl)(methanesulfonyl)sulfamoyl]phenyl}-1-(pyridin-3-ylmethyl)urea] | 
34 | 2 nM | 415 nM | O=C(NCc1cccnc1)Nc1ccc(S(=O)(=O)c2ccc(Cl)cc2F)cc1 [3-{4-[(4-chloro-2-fluorobenzene)sulfonyl]phenyl}-1-(pyridin-3-ylmethyl)urea] | 
35 | 3.3 nM | 93.3 nM | COCc1cccc(S(=O)(=O)c2ccc(NC(=O)NCc3cccnc3)cc2)c1 [3-(4-{[3-(methoxymethyl)benzene]sulfonyl}phenyl)-1-(pyridin-3-ylmethyl)urea] | 
36 | 14 nM | 473 nM | Cc1ccc(C)c(S(=O)(=O)c2ccc(NC(=O)NCc3cccnc3)cc2)c1 [3-{4-[(2,5-dimethylbenzene)sulfonyl]phenyl}-1-(pyridin-3-ylmethyl)urea] | 
37 | 3 nM | 76 nM | O=C(NCc1cccnc1)Nc1ccc(S(=O)(=O)Nc2ccccc2-n2cccc2)cc1 [3-(pyridin-3-ylmethyl)-1-(4-{[2-(1H-pyrrol-1-yl)phenyl]sulfamoyl}phenyl)urea] | 
38 | 7 nM | 114 nM | COc1ncccc1NS(=O)(=O)c1ccc(NC(=O)NCc2cccnc2)cc1 [3-{4-[(2-methoxypyridin-3-yl)sulfamoyl]phenyl}-1-(pyridin-3-ylmethyl)urea] | 
39 | 8 nM | 387 nM | Cc1cccc(C)c1S(=O)(=O)c1ccc(NC(=O)NCc2cccnc2)cc1 [3-{4-[(2,6-dimethylbenzene)sulfonyl]phenyl}-1-(pyridin-3-ylmethyl)urea] | 

Row | Structure (SMILES) | IC50 (NAMPT) | IC50 (A2780 cells; Homo sapiens, A2780, 72 h) | IC50 (A2780 cells)
40 | CC(C)CNC(=O)c1cccc(S(=O)(=O)c2ccc(NC(=O)NCc3cccnc3)cc2)c1 [N-(2-methylpropyl)-3-[(4-{[(pyridin-3-ylmethyl)carbamoyl]amino[benzene)sulfonyl]benzamide] | 9.7 nM |  | 100 to 1000 nM
